Assays:
Assay type in all cases: cell-based
TF-1 cells [1] = test: TF-1 cells viability in vitro in the presence of IL-3 (JAK2 activation); conditions: Homo sapiens, 5 ng/mL IL-3, 72 hours, ATPlite, read-out: JAK2 IL3 (EC50, inhibition of viability of TF-1 cells)
Procedure: (§1) Assay for TF-1 Cells Viability In Vitro
(§2) The effects of the activity of the compounds of the invention were tested in vitro using cells viability assay described below.
Tested compounds were dissolved in 100% DMSO, and obtained stock solutions were serially diluted in OptiMEM medium (Reduced Serum Medium-Thermo Fisher Scientific). […] To a well of the 96-well plate 10 μL of the prepared 10× stock solutions of the compounds. Cells on 96-well plates were incubated with the compounds for 72 hours at 37° C., 5% CO2. Subsequently, viability of the cells was measured using ATPlite kit (Perkin Elmer). For this purpose, 50 μL of lysis buffer (mammalian cell lysis solution) were added to a well of the 96-well plate and the plate was incubated for 10 minutes at 25° C. in a plate thermo-shaker with orbital stirring at 600 rpm. Then to a well of the 96-well plate 50 μL of substrate (substrate solution) were added and incubated for 15 minutes at in dark, in a plate thermo-shaker with orbital stirring at 600 rpm. After incubation time, luminescence intensity in a well was measured using Victor×Light luminometer (Perkin Elmer, Inc.).
On the basis of luminescence intensity measurements in well containing tested compounds at various concentrations and in control wells EC50 values were determined. These values were determined with Graph Pad software v. […] Each compound was tested in at least 6 repetitions (6 wells) on two 96-well plates, using at least 3 wells of each control.

TF-1 cells [2] = test: TF-1 cells viability in vitro in the presence of IL-4 (JAK1/JAK3 activation); conditions: for IC50: Homo sapiens, TF-1, 20 ng/mL IL-4, 72 hours, ATPlite, read-out: JAK1,3 IL4 (EC50, inhibition of viability of TF-1 cells); for JAK2/JAK1,3 Ratio: ratio of TF-1 viability EC50 with IL3 to EC50 with IL4
Procedure: as §1, §2
Tested compounds were dissolved in 100% DMSO, and obtained stock solutions were serially diluted in OptiMEM medium (Reduced Serum Medium-Thermo Fisher Scientific). TF-1 cells (DSMZ no.: ACC 334) in culture medium (80% RPMI 1640+20% FBS) ad in the presence of 5 ng/mL IL-3 or 20 ng/mL IL-4 were deposited on 96-well plates in the volume of 90 μl per well, 10 thousands of cells per well. To a well of the 96-well plate 10 μL of the prepared 10× stock solutions of the compounds. Cells on 96-well plates were incubated with the compounds for 72 hours at 37° C., 5% CO2. Subsequently, viability of the cells was measured using ATPlite kit (Perkin Elmer). For this purpose, 50 μL of lysis buffer (mammalian cell lysis solution) were added to a well of the 96-well plate and the plate was incubated for 10 minutes at 25° C. in a plate thermo-shaker with orbital stirring at 600 rpm. Then to a well of the 96-well plate 50 μL of substrate (substrate solution) were added and incubated for 15 minutes at in dark, in a plate thermo-shaker with orbital stirring at 600 rpm. After incubation time, luminescence intensity in a well was measured using Victor×Light luminometer (Perkin Elmer, Inc.).
On the basis of luminescence intensity measurements in well containing tested compounds at various concentrations and in control wells EC50 values were determined. These values were determined with Graph Pad software v. 5.03, by fitting points of the curve using non-linear regression method. Each compound was tested in at least 6 repetitions (6 wells) on two 96-well plates, using at least 3 wells of each control.

[3] = tested on: INFγ secreted by lymphocytes T; test: Inhibition of INFγ production by lymphocytes T in vitro; conditions: Lymphocyte, 48 hours, human CD4+ lymphocytes T; for inhibition at 0.01 µM: 10 nM; for inhibition at 0.1 µM: 100 nM; for inhibition at 1 µM: 1000 nM
Procedure: Assay for Inhibition of TNFα and INFγ Production by Lymphocytes T In Vitro
(§3) The activity of the compounds of the invention was tested using in vitro assay described below.
Tested compounds were dissolved in 100% DMSO, and obtained stock solutions were serially diluted with OptiMEM medium (Reduced Serum Medium-Thermo Fisher Scientific). Lymhocytes were isolated from leukocyte top coat layer obtained from human peripheral blood. Isolation of peripheral blood mononuclear cells was performed using Ficoll-Paque+Leucosept gradient method, with lymphocytes isolation using CD4+ T Cell Isolation Kit, and activation using T Cell Activation/Expansion Kit (Miltenyi Biotec). Isolated cells in culture medium (90% RPMI 1640+10% FBS) were sived on 12-well plates at 450 μL/well, 300 thousands/well, and 50 μL of prepared 10× stock solutions of tested compounds were added. After 48 hours supernatant was collected for determination of the level of secreted cytokines. Before determination, cells were centrifuged at 1000 g, 10 min. Determination was performed with flow cytometer FACS Calibur using LEGENDplex Human Th cytokine kit. Results are presented in Table 3 as a percentage of inhibition of TNFα i INFγ cytokines secreted by lymphocytes T with reference to control cells.

[4] = tested on: STAT6 protein phosphorylation in TF-1 cells; test: STAT6 phosphorylation inhibition in vitro in TF-1 cells with IL-4; conditions: Homo sapiens, IL-4 20 ng/mL, 1 hour, Western blot densitometry
Procedure: Assay of STAT6 Phosphorylation Inhibition In Vitro
as §3
Tested compounds were dissolved in 100% DMSO, and obtained stock solutions were serially in OptiMEM medium (Reduced Serum Medium-Thermo Fisher Scientific). TF-1 cells (DSMZ no.: ACC 334) in culture medium (80% RPMI 1640+20% FBS) in the presence of IL-4 at 20 ng/mL were sieved on 12-well plates at 900 μl/well, 700 thousands of cells/well. To a well of the 12-well plate 100 μL of obtained 10× solution of the compounds were added. Cells on 12-well plates were incubated with tested compounds for 1 hour at 37° C., 5% CO2. Subsequently the cells were washed with PBS, lysed in RIPA buffer added with EDTA, proteases and phosphatases inhibitors, and incubated for 5 min on ice. Protein concentration was determined using Pierce BCA Protein Assay Kit (Thermo Fisher Scientific). Protein lysates were separated by electrophoresis (SDS-PAGE) on 8% polyacrylamide gels, then wet-transferred on nitrocellulose membrane and tested proteins were detected in accordance with the instructions of antibody manufacturer.
On the basis of the measurement of chemoluminescence intensity densitometric analysis was performed, results obtained for the cells treated with tested compounds at various concentrations were compared with those obtained for control cells, and IC50 values were determined.
These values were determined with Graph Pad software v. 5.03, by fitting points of the curve using non-linear regression method. Each compound was tested in at least 3 repetitions.

| SMILES | IC50 (TF-1 cells [1]) [nM] | IC50 (TF-1 cells [2]) [nM] | JAK2/JAK1,3 Ratio (TF-1 cells [2]) | inhibition at 0.01 µM [3] [%] | inhibition at 0.1 µM [3] [%] | inhibition at 1 µM [3] [%] | IC50 [4] [nM] |
| --- | --- | --- | --- | --- | --- | --- | --- |
| Cc1cc(-c2cc3ncc(C(N)=O)c(N[C@@H]4CCN(c5ccc(C#N)nn5)CC4(C)C)n3n2)ccn1 [Example 12, (R)-7-((1-(6-Cyanopyridazin-3-yl)-3,3-dimethylpiperidin-4-yl)amino)-2-(2-methyl-pyridin-4-yl)pyrazolo[1,5-a]pyrimidine-6-carboxamide] | 361 | 31.1 | 11.6 | 86.2 | 88 | 93 | 150 |
| COc1cccc(-c2cc3ncc(C(N)=O)c(N[C@@H]4CCN(c5ccc(C#N)nn5)CC4(C)C)n3n2)n1 [Example 11, (R)-7-((1-(6-Cyanopyridazin-3-yl)-3,3-dimethylpiperidin-4-yl)amino)-2-(6-methoxy-pyridin-2-yl)pyrazolo[1,5-a]pyrimidine-6-carboxamide] | 451 | 61.1 | 7.4 | 88.8 | 93.5 | 81.4 | 114 |
| CC1(C)CN(c2ccc(C#N)nn2)CC[C@H]1Nc1c(C(N)=O)cnc2cc(-c3ccc(N4CCOCC4)nc3)nn12 [Example 7, (R)-7-((1-(6-Cyanopyridazin-3-yl)-3,3-dimethylpiperidin-4-yl)amino)-2-(6-morpholinopyridin-3-yl)pyrazolo[1,5-a]pyrimidine-6-carboxamide] | 283 | 36.1 | 7.8 | 73.6 | 74.6 | 98.1 | 116 |
| COc1ccc(-c2cc3ncc(C(N)=O)c(N[C@@H]4CCN(c5ccc(C#N)nn5)CC4(C)C)n3n2)cn1 [Example 4, (R)-7-((1-(6-Cyanopyridazin-3-yl)-3,3-dimethylpiperidin-4-yl)amino)-2-(6-methoxy-pyridin-3-yl)pyrazolo[1,5-a]pyrimidine-6-carboxamide] | 707 | 69 | 10.3 | 80.9 | 86.5 | 95.6 | 442 |

— patent US11072619B2, “Pyrazole[1,5-a] pyrimidine derivatives as kinase JAK inhibitors” (CELON PHARMA S.A., priority 2017, dated 2021)
